Test results from US20240016875A1, “SHAN-ZHA FOR THE TREATMENT OF DEPRESSION AND ANXIETY DISORDERS” (THE OPEN UNIVERSITY, priority 2020, published 2024).
Entries after “also recorded” stand apart in the source; their conditions may differ.

What was measured:
Ckb gene = test: Hippocampal RNA-sequencing, gene expression after UCMS; format: in vivo; conditions: hippocampus; UCMS mice; Shan-zha 30 mg/kg, escitalopram 15 mg/kg, 3 weeks; vs UCMS-exposed saline treated group
Experimental: (§1) An Unbiased genome-wide transcriptomic profiling was conducted to reveal alterations in gene expression in the hippocampus induced by treatment. Male ICR mice were subjected to UCMS, after which they were treated with Shan-zha (30 mg/kg), NHT (30 mg/kg), Esciatlopram (15 mg/kg) or saline for 3 weeks. The anxiolytic-like effect of the treatments was verified by EPM. Subsequently, brains were rapidly removed and RNA was isolated from the hippocampus using RNeasy kit (Qiagen). RNA-sequencing (on NGS) and gene expression analysis was conducted. The analysis yielded a wide range of changes in gene expression.
(§2) First, all samples were normalized and clustered in order to verify that there are no noticeable biases based on batches/process/technician/day.. Next, hit maps were generated, in order to observe the global differences between the groups. After which, a PCA analysis was performed to visualize the separation between the samples. Finally, Differential expression analysis with DESE-Q was done, and changes in gene expression of the following genes, which are highly relevant to anxiety, depression or drug-related side effects were followed: […]

rab11B gene = test: as above; format: in vivo; conditions: hippocampus; UCMS mice; Shan-zha 30 mg/kg, escitalopram 15 mg/kg, 3 weeks; vs UCMS-exposed saline treated group
Experimental: as §1, §2

21 days old pups = test: EPM in 21 days old pups treated via lactation; format: in vivo, mice
Experimental: The EPM task was performed as previously described. Shortly, each mouse was placed in the center of the maze and video recorded for 5 min. Anxiety-like behavior was expressed as the time the mouse spent in the open, unprotected arms of the maze.
Female (n=40) and male (n=5) ICR outbred mice (100 days old; Envigo RMS, Jerusalem, Israel) were housed at 22±1° C. under 12 h light/dark cycles in the vivarium of the Open University lab in Hadassah medical center, Jerusalem. Mice had ad libitum access to rodent chow and water. Mice were housed in standard cages with a bed of woodchips and a piece of cotton wool for enrichment. All experiments were performed during the dark phase of the cycle. Male mice were used to father pups and were housed apart (5 per cage) from females until mating. […] Once a vaginal plug was identified, the females were transferred to a separate cage until parturition. Overall, 455 pups were delivered of which 317 (male: n=165; female: n=152) were designated for this study. Unassessed pups were maintained with littermates to avoid additional stress and ensure similar conditions. […]
Following mating, dams were separated to individual cages and were observed periodically to ensure onset of pregnancy. […] Shortly after, anxiety-like behavior was assessed on the EPM and dams were assigned to treatment group (escitalopram/shan-zha/vehicle). […]

Structure (SMILES): CN(C)CCC[C@@]1(c2ccc(F)cc2)OCc2cc(C#N)ccc21 [escitalopram]
- Ckb gene expression (Ckb gene): 0.83 fold change
- RAB11b gene expression (rab11B gene): 0.77 fold change
- stress-induced anxiety-like behavior within treatment group, pups (21 days old pups; PND21, stressed vs naive pups): No similar stress-induced anxiety-like behavior was observed
- anxiety-like behavior in the EPM, treated stressed pups vs saline-treated stressed pups (21 days old pups; PND21, prenatal stress, treatment via lactation, dams 15 mg/kg s.c. daily): saline-treated stressed pups demonstrated elevated anxiety-like behavior compared to both shan-zha- and escitalopram-treated stressed pups; also recorded: the stress-vehicle group demonstrated increased anxiety-like behavior compared to the naïve-vehicle, stress-escitalopram and stress-shan-zha groups
